Measurements taken from publication PMC8287724, “Reducing Auditory Nerve Excitability by Acute Antagonism of Ca^2+-Permeable AMPA Receptors” (Frontiers in Synaptic Neuroscience, 2021).

Assays:
GluA2-containing AMPARs = tested on: GluA2-containing AMPARs; design: method as in Magazanik et al., 1997; Buldakova et al., 1999; conditions: ref Magazanik et al., 1997; Buldakova et al., 1999; cited from earlier work
[1] = Heart rate and blood oxygenation monitoring during systemic dosing; type: in vivo, guinea pig; conditions: IP injection: IEM-1460 13.5 mg/kg, IEM-1925 8 mg/kg; N = 4
Description: This study utilized 21 NIH-strain, pigmented guinea pigs weighing from 400 to 650 g, in accordance with policies and protocols approved by the Institutional Animal Care and Use Committee at Washington University in St. Louis (20180133, 20190035). Animals were anesthetized with intraperitoneal (IP) injection of 100 mg/kg sodium thiobutabarbital (Inactin, Sigma, St. Louis, MO). Once anesthetized, the fur from the head and neck was shaved and a tracheal cannula was placed. The animal was maintained on 0.8–1.2% isoflurane in oxygen using a mechanical ventilator. The ventilator's tidal volume was adjusted to maintain a 5% end-tidal CO2 which was monitored with a CapnoTrue AMP (Bluepoint Medical, Zevenaar, The Netherlands). Body temperature was maintained at 38 degrees C with a DC-powered heating blanket-rectal thermometer (Model 50-7079; Harvard Apparatus). Heart rate and oxygen saturation were monitored with a pulse oximeter (Surgivet, Waukesha, WI). The auditory bulla was exposed ventrally for placement of recording electrodes. The jugular vein was cannulated to maintain hydration with 0.5 mL per hour of Lactated Ringer's solution. […]
Systemic delivery of IEM-1925 (8 mg/kg, IP) reduced CAP amplitude to a similar extent as IEM-1460 (13.5 mg/kg, IP). […] Blood oxygenation and heart rate were monitored along with cochlear physiology during the time course of the experiment. […]

Row | SMILES | IC50 (GluA2-containing AMPARs) [µM] | temporary reduction in heart rate [1]
1 | C[N+](C)(C)CCCCCNCC12CC3CC(CC(C3)C1)C2 [IEM-1460] | 500 to 1100 | 
2 | NCCCCCNC1(c2ccccc2)CCCCC1 [IEM-1925] |  | No such reduction
